Data from patent US8501936B2 (priority 2009, dated 2013).

Target: human JAK2 (Homo sapiens (Human), UniProt O60674)
Settings: read-out: JAK2 IC50

human JAK2, sequence (O60674 815-1132): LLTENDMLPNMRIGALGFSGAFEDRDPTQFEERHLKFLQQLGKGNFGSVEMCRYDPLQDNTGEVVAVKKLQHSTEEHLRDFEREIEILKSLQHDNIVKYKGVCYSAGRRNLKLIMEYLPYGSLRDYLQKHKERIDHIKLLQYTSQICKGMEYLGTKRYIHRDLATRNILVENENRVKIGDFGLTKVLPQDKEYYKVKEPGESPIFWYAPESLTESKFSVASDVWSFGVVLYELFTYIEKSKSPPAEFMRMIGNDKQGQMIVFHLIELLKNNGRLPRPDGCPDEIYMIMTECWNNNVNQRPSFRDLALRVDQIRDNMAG

SMILES | IC50
COc1ccc(Nc2nc3c(N4CCN(C)CC4)cccn3n2)cc1 [Example 30, (4-Methoxy-phenyl)-[8-(4-methyl-piperazin-1-yl)-[1,2,4]triazolo[1,5-a]pyridin-2-yl]-amine] | 441 nM
CC(C)(C)OC(=O)N1CCc2ccc(Nc3nc4c(-c5cccc6c5OC(F)(F)O6)cccn4n3)cc2CC1 [Example 243] | 2110 nM
Cc1nn(C)c(C)c1Nc1nc2c(-c3ccc(S(C)(=O)=O)cc3)cccn2n1 [Example 210, [8-(4-Methanesulfonyl-phenyl)-[1,2,4]triazolo[1,5-a]pyridin-2-yl]-(1,3,5-trimethyl-1H-pyrazol-4-yl)-amine] | 3000 nM
CC(C)(C)OC(=O)N1CCC(c2ccc(Nc3nc4c(-c5cnn(-c6ccc(F)cc6)c5)cccn4n3)cc2)CC1 [Example 280, 4-{4-[8-(1-(4-Fluoro-phenyl)-1H-pyrazol-4-yl)-[1,2,4]triazolo[1,5-a]pyridine-2-ylamino]-phenyl}-piperidine-1-carboxylic acid tert-butyl ester] | 1110 nM

Target: human FAK (Homo sapiens (Human), UniProt Q05397)
Settings: read-out: FAK IC50

human FAK, sequence (Q05397 whole entry): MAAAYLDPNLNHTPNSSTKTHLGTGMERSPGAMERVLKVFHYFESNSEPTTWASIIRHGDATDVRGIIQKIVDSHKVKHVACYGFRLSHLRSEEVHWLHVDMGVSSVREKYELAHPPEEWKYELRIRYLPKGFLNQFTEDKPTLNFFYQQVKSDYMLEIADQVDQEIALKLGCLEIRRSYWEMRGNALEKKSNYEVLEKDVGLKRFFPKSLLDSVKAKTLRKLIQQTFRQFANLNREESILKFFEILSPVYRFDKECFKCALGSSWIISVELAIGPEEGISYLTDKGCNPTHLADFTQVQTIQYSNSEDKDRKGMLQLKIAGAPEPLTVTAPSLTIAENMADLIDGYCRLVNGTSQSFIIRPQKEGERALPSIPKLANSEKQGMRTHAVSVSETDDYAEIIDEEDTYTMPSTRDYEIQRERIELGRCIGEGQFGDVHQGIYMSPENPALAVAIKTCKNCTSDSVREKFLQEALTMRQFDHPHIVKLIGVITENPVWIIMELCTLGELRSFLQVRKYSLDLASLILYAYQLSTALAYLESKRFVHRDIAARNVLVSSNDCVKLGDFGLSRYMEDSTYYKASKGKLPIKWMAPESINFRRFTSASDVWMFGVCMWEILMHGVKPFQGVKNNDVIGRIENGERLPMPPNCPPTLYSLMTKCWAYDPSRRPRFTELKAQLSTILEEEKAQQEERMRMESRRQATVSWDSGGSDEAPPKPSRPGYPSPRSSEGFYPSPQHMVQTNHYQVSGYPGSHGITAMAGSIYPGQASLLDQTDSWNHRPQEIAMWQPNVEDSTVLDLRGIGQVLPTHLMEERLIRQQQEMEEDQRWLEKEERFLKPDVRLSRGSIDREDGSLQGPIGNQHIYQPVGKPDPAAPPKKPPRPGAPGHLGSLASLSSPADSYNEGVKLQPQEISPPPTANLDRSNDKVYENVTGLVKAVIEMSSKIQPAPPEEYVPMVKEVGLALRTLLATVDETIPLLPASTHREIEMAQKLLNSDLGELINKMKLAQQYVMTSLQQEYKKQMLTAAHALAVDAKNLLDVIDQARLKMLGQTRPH

SMILES | IC50
CN1CCN(c2ccc(Nc3nc4c(NCC5CCCN5S(C)(=O)=O)cccn4n3)cc2)CC1 (centres unmarked) [Example 170, N(8)-(1-Methanesulfonyl-pyrrolidin-2-ylmethyl)-N(2)-[4-(4-methyl-piperazin-1-yl)-phenyl]-[1,2,4]triazolo[1,5-a]pyridine-2,8-diamine] | 872 nM
CN1CCN(c2ccc(Nc3nc4c(OCc5cccc(Cl)c5)cccn4n3)cc2)CC1 [Example 260, [8-(3-Chloro-benzyloxy)-[1,2,4]triazolo[1,5-a]pyridin-2-yl]-[4-(4-methyl-piperazin-1-yl)-phenyl]-amine] | 1100 nM
Fc1ccc(C(F)(F)F)cc1-c1cccn2nc(Nc3ccc4c(c3)CCNCC4)nc12 [Example 270, [8-(2-Fluoro-5-trifluoromethyl-phenyl)-[1,2,4]triazolo[1,5-a]pyridin-2-yl]-[2,3,4,5-tetrahydro-1H-benzo[d]azopin-7-yl]-amine] | 6500 nM
CC(C)COc1ccc(C(F)(F)F)cc1-c1cccn2nc(Nc3ccc4c(c3)CCNCC4)nc12 [Example 379, [8-(2-Isobutoxy-5-trifluoromethyl-phenyl)-[1,2,4]triazolo[1,5-a]pyridin-2-yl]-(2,3,4,5-tetrahydro-1H-3-benzazepin-7-yl)-amine] | 3000 nM
COc1ccc(Nc2nc3c(-c4ccc(S(C)(=O)=O)cc4)cccn3n2)cc1 [Example 19, [8-(4-Methanesulfonyl-phenyl)-[1,2,4]triazolo[1,5-a]pyridin-2-yl]-(4-methoxy-phenyl)-amine] | 1580 nM
O=c1[nH]cccc1-c1cccn2nc(Nc3ccc4ncccc4c3)nc12 [Example 276, 3-[2-(Quinolin-6-ylamino)-[1,2,4]triazolo[1,5-a]pyridin-8-yl]-1H-pyridin-2-one] | 10000 nM
CN1CCN(c2cccc(Nc3nc4c(OCc5ccccc5C#N)cccn4n3)c2)CC1 [Example 263, 2-{2-[3-(4-Methyl-piperazin-1-yl)-phenylamino]-[1,2,4]triazolo[1,5-a]pyridin-8-yloxymethyl}-benzonitrile] | 3000 nM
COc1cccc(CNc2cccn3nc(Nc4ccncc4)nc23)c1 [Example 399, N(8)-(3-Methoxy-benzyl)-N(2)-pyridin-4-yl-[1,2,4]triazolo[1,5-a]pyridine-2,8-diamine] | 10000 nM
CN1CCN(c2ccc(Nc3nc4c(-c5ccc(S(=O)(=O)N(C)C)cc5)cccn4n3)cc2)CC1 [Example 54, N,N-Dimethyl-4-{2-[4-(4-methyl-piperazin-1-yl)-phenylamino]-[1,2,4]triazolo[1,5-a]pyridin-8-yl}-benzenesulfonamide] | 787 nM
CN(C)C(=O)CN1CCC(c2ccc(Nc3nc4c(-c5cnn(-c6ccc(F)cc6)c5)cccn4n3)cc2)CC1 [Example 283, 2-[4-(4-{8-{1-(4-Fluoro-phenyl)1H-pyrazol-4-yl}-[1,2,4]triazolo[1,5-a]pyridine-2-ylamino}-phenyl)-piperidin-1-yl]-N,N-dimethyl-acetamide] | 1370 nM
CCN1CCN(c2cccc(Nc3nc4c(-c5ccc(S(C)(=O)=O)cc5)cccn4n3)c2)C(=O)C1 [Example 205, 4-Ethyl-1-{3-[8-(4-methanesulfonyl-phenyl)-[1,2,4]triazolo[1,5-a]pyridin-2-ylamino]-phenyl}-piperazin-2-one] | 10000 nM
CN1C(=O)Cc2cc(Nc3nc4c(NCc5cccnc5N(C)S(C)(=O)=O)cccn4n3)ccc21 [Example 146, N-Methyl-N-(3-{[2-(1-methyl-2-oxo-2,3-dihydro-1H-indol-5-ylamino)-[1,2,4]triazolo[1,5-a]pyridin-8-ylamino]-methyl}-pyridin-2-yl)-methanesulfonamide] | 106 nM
CN1CCN(c2ccc(Nc3nc4c(-c5cccc(N(C)S(C)(=O)=O)c5)cccn4n3)cc2)CC1 [Example 127, N-Methyl-N-(3-{2-[4-(4-methyl-piperazin-1-yl)-phenylamino]-[1,2,4]triazolo[1,5-a]pyridin-8-yl}-phenyl)-methanesulfonamide] | 3130 nM
CN1CCN(c2ccc(Nc3nc4c(Nc5cccc(S(C)(=O)=O)c5)cccn4n3)cc2)CC1 [Example 109, N(8)-(3-Methanesulfonyl-phenyl)-N(2)-[4-(4-methyl-piperazin-1-yl)-phenyl]-[1,2,4]triazolo[1,5-a]pyridine-2,8-diamine] | 10000 nM
CS(=O)(=O)c1ccccc1Nc1nc2c(Nc3ccccc3S(C)(=O)=O)cccn2n1 [Example 69, N(2),N(8)-Bis-(2-methanesulfonyl-phenyl)-[1,2,4]triazolo[1,5-a]pyridine-2,8-diamine] | 6500 nM
CN1CCN(c2cncc(Nc3nc4cncc(-c5ccc(S(C)(=O)=O)cc5)n4n3)c2)CC1 [Example 108, [5-(4-Methanesulfonyl-phenyl)-[1,2,4]triazolo[1,5-a]pyrazin-2-yl]-[5-(4-methyl-piperazin-1-yl)-pyridin-3-yl]-amine] | 3370 nM

SMILES | IC50
CN1CCC(c2ccc(Nc3nc4c(NCc5ccccc5CN(C)S(C)(=O)=O)cccn4n3)cc2)CC1 [Example 159, N-Methyl-N-[2-({2-[4-(1-methyl-piperidin-4-yl)-phenylamino]-[1,2,4]triazolo[1,5-a]pyridin-8-ylamino}-methyl)-benzyl]-methanesulfonamide] | 538 nM
FC1(F)Oc2cccc(-c3cccn4nc(Nc5ccc6c(c5)CCNCC6)nc34)c2O1 [Example 244, [8-(2,2-difluoro-1,3-benzodioxol-4-yl)-[1,2,4]triazolo[1,5-a]pyridin-2-yl]-(2,3,4,5-tetrahydro-1H-3-benzazepin-7-yl)amine] | 6500 nM
COc1ccccc1CNc1cccn2nc(Nc3ccncc3)nc12 [Example 401, N(8)-(2-Methoxy-benzyl)-N(2)-pyridin-4-yl-[1,2,4]triazolo[1,5-a]pyridine-2,8-diamine] | 6500 nM
CC(C)Oc1ccccc1-c1cccn2nc(Nc3ccc4c(c3)CCNCC4)nc12 [Example 299, [8-(2-Isopropoxy-phenyl]-[1,2,4]triazolo[1,5a]pyridine-2-yl]-(2,3,4,5-tetrahydro-benzo[d]azepin-7-yl)-amine] | 999 nM
COc1cccc(-c2cccn3nc(Nc4ccc5c(c4)CNC5)nc23)c1 [Example 346, (2,3-Dihydro-1H-isoindol-5-yl)-[8-(3-methoxy-phenyl)-[1,2,4]-triazolo[1,5-a]pyridin-2-yl]-amine] | 999 nM
COc1ccc(C(F)(F)F)cc1-c1cccn2nc(Nc3cccc(C4CCN(CC(=O)N(C)C)CC4)c3)nc12 [Example 410] | 658 nM
CCn1cc(Nc2nc3c(-c4ccc(C(F)(F)F)cc4)cccn3n2)cn1 [Example 215, (1-Ethyl-1H-pyrazol-4-yl)-[8-(4-trifluoromethyl-phenyl)-[1,2,4]triazolo[1,5-a]pyridin-2-yl]-amine] | 10000 nM
COc1cc(C(F)(F)F)ccc1-c1cccc2nc(Nc3ccc4c(c3)CCN(CCS(C)(=O)=O)CC4)nn12 [Example 238] | 1950 nM
FC(F)COc1ccccc1-c1cccn2nc(Nc3ccc4c(c3)CCNCC4)nc12 [Example 367, {8-[2-(2,2-Difluoro-ethoxy)-phenyl]-[1,2,4]triazolo[1,5-a]pyridin-2-yl}-(2,3,4,5-tetrahydro-1H-3-benzazepin-7-yl)-amine] | 1910 nM
CC(C)Oc1ccc(C(F)(F)F)cc1-c1cccn2nc(Nc3ccc4c(c3)CCN(CC(=O)N(C)C)CC4)nc12 [Example 326, 2-{7-[8-(2-Isopropoxy-5-trifluoromethyl-phenyl)-[1,2,4]triazolo[1,5-a]pyridin-2-ylamino]-1,2,4,5-tetrahydro-3-benzazepin-3-yl}-N,N-dimethyl-acetamide] | 5500 nM
CS(=O)(=O)CCN1CCC(c2cccc(Nc3nc4c(-c5ccc(S(C)(=O)=O)cc5)cccn4n3)c2)CC1 [Example 190, {3-[1-(2-Methanesulfonyl-ethyl)-piperidin-4-yl]-phenyl}-[8-(4-methanesulfonyl-phenyl)-[1,2,4]triazolo[1,5-a]pyridin-2-yl]-amine] | 580 nM
CS(=O)(=O)c1ccc(-c2cccn3nc(Nc4ccc(N5CCC(N6CCOCC6)CC5)cc4)nc23)cc1 [Example 49, [8-(4-Methanesulfonyl-phenyl)-[1,2,4]triazolo[1,5-a]pyridin-2-yl]-[4-(4-morpholin-4-yl-piperidin-1-yl)-phenyl]-amine] | 251 nM
CN1CCN(c2cccc(Nc3nc4c(NCc5ccccc5N(C)S(C)(=O)=O)cccn4n3)c2)CC1 [Example 148, N-Methyl-N-[2-({2-[3-(4-methyl-piperazin-1-yl)-phenylamino]-[1,2,4]triazolo[1,5-a]pyridin-8-ylamino}-methyl)-phenyl]-methanesulfonamide] | 14.6 nM
CS(=O)(=O)c1cccc(-c2cccc3nc(Nc4ccc(CN5CCOCC5)cc4)nn23)c1 [Example 87, [5-(3-Methanesulfonyl-phenyl)-[1,2,4]triazolo[1,5-a]pyridin-2-yl]-(4-morpholin-4-ylmethyl-phenyl)-amine] | 341 nM
CS(=O)(=O)c1ccc(-c2cccn3nc(Nc4cccc(C5CCNCC5)c4)nc23)cc1 [Example 182, [8-(4-Methanesulfonyl-phenyl)-[1,2,4]triazolo[1,5-a]pyridin-2-yl]-(3-piperidin-4-yl-phenyl)-amine] | 1000 nM
